Results reported in patent US20090170803A1, “[…] OF […]” (priority 2002, published 2009).
“Also recorded” adds a separate entry of the source.

How the values were obtained:
human PMNL = test: Preliminary in vitro studies: effects of A2AAR agonists on phagocytic cells (human PMNL); assay type: cell-based
human monocytes = test: Inhibition of LPS-stimulated human monocyte TNF production; assay type: cell-based
C57BL/6 mice = test: Murine model of endotoxin-induced septic shock (E. coli 026:B6 LPS), mortality; assay type: in vivo; set-up: protection of mice from E. Coli 026:B6 LPS-induced endotoxemia, dose response (FIG. 1): dose or concentration left out as unconfirmed
A2A-KO mice = test: Murine septic shock model in A2A-KO mice; assay type: in vivo; conditions: 5 μg/kg, four doses at six hour intervals beginning 12 hours after LPS 12.5 mg/kg
E. Coli = test: Mice injected with live E. Coli and treated with ceftriaxone, survival; assay type: in vivo; conditions: 20 million E. Coli IP at time 0; ceftriaxone once at time 0; 50 μg/kg ATL146e 8 times at 6 hour intervals
IL-6 = tested on: IL-6; set-up: species or system C57BL/6 mice; conditions: mouse, in vivo, ip
RANTES = tested on: RANTES; set-up: species or system C57BL/6 mice; conditions: mouse, in vivo
neutrophils in kidneys = tested on: neutrophils in kidneys; set-up: species or system C57BL/6 mice; conditions: mouse, in vivo, ip

CCNC(=O)[C@H]1O[C@@H](n2cnc3c(N)nc(C#CCC4CCC(C(=O)OC)CC4)nc32)C(O)C1O (stereo in doubt) [ATL146e, 4-{3-[6-Amino-9-(5-ethylcarbamoyl-3,4-dihydroxy-tetrahydro-furan-2-yl)-9H-purin-2-yl]-prop-2-ynyl}cyclohexanecarboxylic acid methyl ester]
effects on phagocytic cells in vitro and in animal models of acute inflammation (human PMNL): potent agonists and provide anti-inflammatory responses | inhibition of LPS-stimulated human monocyte TNF production, potency comparison (human monocytes): more potent than CGS21680 | protection from death (FIG. 2) (C57BL/6 mice; 5 μg/kg i.p. at 6-hour intervals for 24 hours beginning simultaneously with LPS 12.5 mg/kg, p=0.0002): protection from death | protection from death after a delay in the onset of therapy (FIG. 3) (C57BL/6 mice; 5 μg/kg i.p. at six hour intervals, four doses, delay of 24 hours following LPS challenge (12.5 mg/kg)): protection from death | protection of mice from E. Coli 026:B6 LPS-induced endotoxemia, dose response (FIG. 1) (C57BL/6 mice; IP one hour prior to LPS and at 6 hour intervals, 8 doses/48 hours): dose dependent response | protection at the highest dosages (C57BL/6 mice; highest dosages, LPS 12.5 mg/kg): complete protection | survival at 4 days (C57BL/6 mice; highest doses, vehicle mortality 75%): 100% | protective effect in A2A-KO mice relative to wild type (A2A-KO mice): less protection; also recorded: completely lost | survival of mice injected with live E. Coli and treated with ceftriaxone, compared to antibiotic alone (FIG. 6) (E. Coli): increases survival | renal IL-6 levels, relative to those from mice exposed to LPS/Stx2 (FIG. 7) (IL-6): approximately 16% | chemokine Renal RANTES in kidney samples (FIG. 8) (RANTES): reduction

CCNC(=O)[C@H]1O[C@@H](n2cnc3c(N)nc(C#CCC4CCC(COC(C)=O)CC4)nc32)C(O)C1O (stereo in doubt) [ATL193, Acetic acid 4-{3-[6-amino-9-(5-ethylcarbamoyl-3,4-dihydroxytetrahydrofuran-2-yl)-9H-purin-2-yl]-prop-2-ynyl}-cyclohexylmethyl Ester]
effects on phagocytic cells in vitro and in animal models of acute inflammation (human PMNL): potent agonists and provide anti-inflammatory responses

CCNC(=O)[C@H]1O[C@@H](n2cnc3c(N)nc(C#C[C@]4(O)CCC[C@@H](C)C4)nc32)C(O)C1O (stereo in doubt) [ATL-203, 5-[6-Amino-2-(1-hydroxy-3-methylcyclohexylethynyl)purin-9-yl]-3,4-dihydroxytetrahydrofuran-2-carboxylic acid ethylamide]
renal IL-6 levels, relative to those from mice exposed to LPS/Stx2 (FIG. 7) (IL-6): approximately 16% | chemokine Renal RANTES in kidney samples (FIG. 8) (RANTES): reduction | neutrophil positive glomeruli, relative to the Stx2 positive samples (FIG. 9) (neutrophils in kidneys): 40%

Nc1nc(NCCc2ccc(O)cc2)nc2nc(-c3ccco3)nn12 [ZM241385, reference compound]
block by A2AAR antagonist of the agonist effect on TNF-stimulated superoxide release (human PMNL; adherent PMNLs, with A2AAR agonists): completely blocked | reversal of the inhibition of monocyte TNF production by A2AAR antagonist (human monocytes; with ATL146e): reversed | protective efficacy of ATL146e when ZM is co-administered (FIG. 4) (C57BL/6 mice; ZM in equimolar concentrations (3 μg/kg) with ATL146e, six hour intervals for 24 hours beginning 12 hours after LPS): nearly eliminated | protection from death by antagonist alone (FIG. 4) (C57BL/6 mice; six hour intervals for 24 hours beginning 12 hours after LPS challenge): does not protect

Rolipram [reference compound]
accentuation of the A2AAR agonist effects on activation of PMNLs (human PMNL; with A2AAR agonists): synergistically accentuates
